The values that follow come from patent US20140135270A1, “MACROCYCLIC COMPOUNDS FOR INHIBITION OF INHIBITORS OF APOPTOSIS” (Ensemble Therapeutics Corp., priority 2012, published 2014).

Each structure is given as a SMILES string.

The target in one assay is T1, His-BIR3 (241-356, XIAP) (Homo sapiens, UniProt P98170).
T1 construct: additions of His-BIR3 (241-356, XIAP), fluorescein labeled SMAC peptide
As to the kind of experiment: XIAP-BIR3/SMAC Homogeneous Time Resolved Fluorescence (HTRF) Assay. Type of assay: binding. The conditions noted are these: fluorescein labeled SMAC peptide. On the technique in general: TR-FRET usually uses a lanthanide donor and a delayed reading to cut background.

Assay [1] concerns the target T2, His-BIR2-3 (125-356, C202A/C213G, XIAP) (Homo sapiens, UniProt P98170, C202A/C213G).
T2 construct: additions of His-BIR2-3 (125-356, C202A/C213G, XIAP), fluorescein labeled dimeric SMAC peptide
As to the kind of experiment: XIAP-BIR2-3 Dimeric SMAC Peptide Homogeneous Time Resolved Fluorescence (HTRF) Assay. Type of assay: binding. The conditions noted are these: fluorescein labeled dimeric SMAC peptide.

T2 sequence (P98170 125-356 C202A/C213G): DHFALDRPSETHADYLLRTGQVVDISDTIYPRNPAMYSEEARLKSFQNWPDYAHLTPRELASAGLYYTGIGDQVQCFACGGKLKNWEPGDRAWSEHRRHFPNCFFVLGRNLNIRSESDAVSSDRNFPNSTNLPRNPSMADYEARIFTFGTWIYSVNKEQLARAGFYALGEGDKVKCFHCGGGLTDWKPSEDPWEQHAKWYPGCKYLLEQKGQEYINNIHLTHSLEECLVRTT
T1 sequence (P98170 241-356): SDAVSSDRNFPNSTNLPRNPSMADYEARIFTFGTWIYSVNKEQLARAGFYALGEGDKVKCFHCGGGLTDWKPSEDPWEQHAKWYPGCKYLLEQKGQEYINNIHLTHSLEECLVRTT

With `CN[C@@H](C)C(=O)N[C@H](C(=O)N1C[C@@H]2C[C@H]1C(=O)N[C@@H](C)C(=O)N[C@H](C(=O)NS(=O)(=O)C1CC1)Cc1ccc(cc1)OCc1cn(nn1)[C@H]1C[C@@H](C(=O)N[C@@H](Cc3ccc4ccccc4c3)C(=O)N[C@H](C(=O)O)Cc3ccc(cc3)OC/C=C/CO2)N(C(=O)[C@@H](NC(=O)[C@H](C)NC)C(C)(C)C)C1)C(C)(C)C` [Example 103], the IC50 – broadly, the concentration that inhibits the measured activity by half – was 67.2 nM against His-BIR3 (241-356, XIAP) and 2.9 nM in assay [1].
The matching figures for `CN[C@@H](C)C(=O)NC(C(=O)N1C[C@H]2CCCCOc3ccc(cc3)C[C@@H](c3n[nH]c(=O)o3)NC(=O)C(Cc3ccc4ccccc4c3)NC(=O)[C@@H]3C[C@@H](CN3C(=O)[C@@H](NC(=O)[C@H](C)NC)C(C)(C)C)n3cc(nn3)COc3ccc(cc3)C[C@@H](C(=O)O)NC(=O)[C@H](Cc3ccc4ccccc4c3)NC(=O)[C@@H]1C2)C(C)(C)C` (stereo partly shown) [Example 92]: 2.9 nM and 0.9 nM.
The matching figures for `CN[C@@H](C)C(=O)N[C@H](C(=O)N1C[C@@H]2C[C@H]1C(=O)N[C@@H](Cc1ccc3ccccc3c1)C(=O)N[C@H](C(=O)NS(=O)(=O)C1CC1)Cc1ccc(cc1)OCc1cn(nn1)[C@H]1C[C@@H](C(=O)N[C@@H](Cc3ccc4ccccc4c3)C(=O)N[C@H](C(=O)O)Cc3ccc(cc3)OC/C=C/CO2)N(C(=O)[C@@H](NC(=O)[C@H](C)NC)C(C)(C)C)C1)C1CCCCC1` [Example 108]: 90.3 nM and 7.8 nM.
The matching figures for `CC[C@H](NC(=O)[C@H](C)NC)C(=O)N1C[C@@H]2C[C@H]1C(=O)N1Cc3ccccc3C[C@H]1C(=O)N[C@H](C(=O)O)Cc1ccc(cc1)C(=O)N[C@H]1C[C@@H](C(=O)N[C@@H](Cc3ccc4ccccc4c3)C(=O)N[C@H](C(=O)O)Cc3ccc(cc3)OC/C=C/CO2)N(C(=O)[C@@H](NC(=O)[C@H](C)NC)C(C)(C)C)C1` [Example 50]: 80 nM and 56.7 nM.
On to `CN[C@@H](C)C(=O)N[C@H](C(=O)N1C[C@@H]2C[C@H]1C(=O)NC(Cc1ccc3ccccc3c1)C(=O)N[C@H](C(=O)O)CCCCOC/C=C/C[C@H]1C[C@@H](C(=O)N[C@@H](Cc3ccc4ccccc4c3)C(=O)N[C@H](C(=O)O)Cc3ccc(cc3)OCc3cn2nn3)N(C(=O)[C@@H](NC(=O)[C@H](C)NC)C(C)(C)C)C1)C(C)(C)C` (stereo partly shown) [Example 96], for which the IC50 on His-BIR3 (241-356, XIAP) came out at 7.1 nM; in assay [1], 1 nM.
The matching figures for `CN[C@@H](C)C(=O)N[C@H](C(=O)N1C[C@@H]2C[C@H]1C(=O)N[C@@H](Cc1ccc3ccccc3c1)C(=O)N[C@H](C(=O)O)Cc1ccc(cc1)OC/C=C/CO[C@H]1C[C@@H](C(=O)N[C@@H](Cc3cccc(-c4cccnc4)c3)C(=O)N[C@H](C(=O)NS(=O)(=O)C3CC3)Cc3ccc(cc3)OCc3cn2nn3)N(C(=O)[C@@H](NC(=O)[C@H](C)NC)C(C)(C)C)C1)C(C)(C)C` [Example 116]: 30.8 nM and 20.1 nM.
For `CN[C@@H](C)C(=O)N[C@H](C(=O)N1C[C@@H]2C[C@H]1C(=O)NC(Cc1ccc3ccccc3c1)C(=O)N[C@H](c1n[nH]c(=O)n1Cc1ccc(OC)cc1)Cc1ccc(cc1)OC/C=C/C[C@H]1C[C@@H](C(=O)N[C@@H](Cc3ccc4ccccc4c3)C(=O)N[C@H](C(=O)O)Cc3ccc(cc3)OCc3cn2nn3)N(C(=O)[C@@H](NC(=O)[C@H](C)NC)C(C)(C)C)C1)C(C)(C)C` (stereo partly shown) [Example 95] the same measures were 3.1 nM and 1.8 nM.
For `CN[C@@H](C)C(=O)N[C@H](C(=O)N1C[C@@H]2C[C@H]1C(=O)N[C@@H](Cc1ccc3ccccc3c1)C(=O)N[C@H](C(=O)O)Cc1ccc(cc1)C(=O)N[C@H]1C[C@@H](C(=O)N[C@@H](Cc3ccc4ccccc4c3)C(=O)N[C@H](C(=O)O)Cc3ccc(cc3)OC/C=C/CO2)N(C(=O)[C@@H](NC(=O)[C@H](C)NC)C(C)(C)C)C1)C(C)O` (stereo partly shown) [Example 65] the same measures were 14.3 nM and 1.9 nM.
Consider `CN[C@@H](C)C(=O)N[C@H](C(=O)N1C[C@@H]2C[C@H]1C(=O)N[C@@H](Cc1ccc3ccccc3c1)C(=O)N[C@H](C(=O)NS(=O)(=O)C1CC1)Cc1ccc(cc1)OCc1cn(nn1)[C@H]1C[C@@H](C(=O)N[C@@H](Cc3ccc4ccccc4c3)C(=O)N[C@H](C(=O)O)Cc3ccc(cc3)OC/C=C/CO2)N(C(=O)[C@@H](NC(=O)[C@H](C)NC)C(C)(C)C)C1)C1CCNCC1` [Example 110], for which the IC50 against His-BIR3 (241-356, XIAP) turned out to be 10 nM; in assay [1] it was 1.5 nM.
As for `CNC(C)C(=O)NC(C(=O)N1CC2CC1C(=O)NC(Cc1ccc3ccccc3c1)C(=O)NC(C(=O)O)Cc1ccc(cc1)OCc1cn(nn1)C1CC(C(=O)NC(Cc3ccc4ccccc4c3)C(=O)NC(C(=O)O)Cc3ccc(cc3)OCC=CCO2)N(C(=O)C(NC(=O)C(C)NC)C(C)(C)C)C1)C(C)(C)C` (stereo not shown) [Example 4], the IC50 is 4.1 nM at His-BIR3 (241-356, XIAP) and 0.7 nM in assay [1].
For `CN[C@@H](C)C(=O)N[C@H](C(=O)N1C[C@@H]2C[C@H]1C(=O)N[C@@H](Cc1ccc3ccccc3c1)C(=O)N[C@H](C(=O)O)Cc1ccc(cc1)C(=O)N[C@H]1C[C@@H](C(=O)N[C@@H](Cc3ccc4ccccc4c3)C(=O)N[C@H](C(=O)O)Cc3ccc(cc3)OC/C=C/CO2)N(C(=O)[C@@H](NC(=O)[C@H](C)NC)C(C)(C)C)C1)C1CCOCC1` [Example 66] the same measures were 5.2 nM and 1.3 nM.
The matching figures for `CN[C@@H](C)C(=O)N[C@H](C(=O)N1C[C@H]2CCCCOc3ccc(cc3)C[C@@H](c3nnn[nH]3)NC(=O)[C@H](Cc3ccc4ccccc4c3)NC(=O)[C@@H]3C[C@@H](CN3C(=O)[C@@H](NC(=O)[C@H](C)NC)C(C)(C)C)n3cc(nn3)COc3ccc(cc3)C[C@@H](C(=O)O)NC(=O)[C@H](Cc3ccc4ccccc4c3)NC(=O)[C@@H]1C2)C(C)(C)C` [Example 90]: 1.7 nM and 0.5 nM.
For `CN[C@@H](C)C(=O)N[C@H](C(=O)N1C[C@@H]2C[C@H]1C(=O)N[C@@H](Cc1ccc3ccccc3c1)C(=O)N[C@H](C(=O)O)Cc1ccc(cc1)OC/C=C/CO[C@H]1C[C@@H](C(=O)N[C@@H](Cc3ccc(-c4cccc(F)c4)cc3)C(=O)N[C@H](C(=O)NS(=O)(=O)C3CC3)Cc3ccc(cc3)OCc3cn2nn3)N(C(=O)[C@@H](NC(=O)[C@H](C)NC)C(C)(C)C)C1)C(C)(C)C` [Example 115] the same measures were 18.1 nM and 11.1 nM.
Take `CNC(C)C(=O)NC(C(=O)N1CC2CCCCOc3ccc(cc3)CC(C(=O)NS(=O)(=O)CCCNC(C)=O)NC(=O)C(Cc3ccc4ccccc4c3)NC(=O)C3CC(CN3C(=O)C(NC(=O)C(C)NC)C(C)(C)C)n3cc(nn3)COc3ccc(cc3)CC(C(=O)O)NC(=O)C(Cc3ccc4ccccc4c3)NC(=O)C1C2)C(C)(C)C` (stereo not shown) [Example 27]: the IC50 was 3.5 nM at His-BIR3 (241-356, XIAP) and 2.7 nM in assay [1].
For `CN[C@@H](C)C(=O)N[C@H](C(=O)N1CC[C@@H]2OC/C=C/COc3ccc(cc3)C[C@@H](C(=O)O)NC(=O)[C@H](Cc3ccc4ccccc4c3)NC(=O)[C@@H]3[C@H](CCN3C(=O)[C@@H](NC(=O)[C@H](C)NC)C(C)(C)C)OCc3cn(nn3)[C@H](C(=O)NS(C)(=O)=O)CCCNC(=O)[C@H](Cc3ccc4ccccc4c3)NC(=O)[C@H]21)C(C)(C)C` [Example 18] the same measures were 5.8 nM and 1.8 nM.
For `CN[C@@H](C)C(=O)N[C@H](C(=O)N1C[C@@H]2C[C@H]1C(=O)NC(Cc1ccc3ccccc3c1)C(=O)N[C@H](C(=O)O)Cc1ccc(cc1)OCCCC[C@H]1C[C@@H](C(=O)N[C@@H](Cc3ccc4ccccc4c3)C(=O)N[C@H](c3nnn[nH]3)Cc3ccc(cc3)OCc3cn2nn3)N(C(=O)[C@@H](NC(=O)[C@H](C)NC)C(C)(C)C)C1)C(C)(C)C` (stereo partly shown) [Example 99] the same measures were 2.4 nM and 3.7 nM.
Consider `CN[C@@H](C)C(=O)N[C@H](C(=O)N[C@H]1C/C=C/CC[C@@H](C(=O)O)NC(=O)[C@H](Cc2ccc3ccccc3c2)NC(=O)[C@@H]2CN(CCNC(=O)CC[C@@H](C(=O)O)NC(=O)[C@H](Cc3ccc4ccccc4c3)NC1=O)CCN2C(=O)[C@@H](NC(=O)[C@H](C)NC)C(C)(C)C)C(C)(C)C` [Example 80], for which the IC50 against His-BIR3 (241-356, XIAP) was 373 nM; in assay [1], 6.8 nM.
For `CN[C@@H](C)C(=O)N[C@H](C(=O)N[C@H]1C/C=C/COc2ccc(cc2)C[C@@H](C(=O)O)NC(=O)[C@H](Cc2ccc3ccccc3c2)NC(=O)[C@@H]2CN(CCN2C(=O)[C@@H](NC(=O)[C@H](C)NC)C(C)(C)C)C(=O)CNC(=O)CC[C@@H](C(=O)O)NC(=O)[C@H](Cc2ccc3ccccc3c2)NC1=O)C(C)(C)C` [Example 78] the same measures were 82.4 nM and 4.7 nM.
Consider `CN[C@@H](C)C(=O)N[C@H](C(=O)N1C[C@@H]2C[C@H]1C(=O)NC(Cc1ccc3ccccc3c1)C(=O)N[C@H](C(=O)NS(=O)(=O)CCCO)Cc1ccc(cc1)OCCCC[C@H]1C[C@@H](C(=O)N[C@@H](Cc3ccc4ccccc4c3)C(=O)N[C@H](C(=O)O)Cc3ccc(cc3)OCc3cn2nn3)N(C(=O)[C@@H](NC(=O)[C@H](C)NC)C(C)(C)C)C1)C(C)(C)C` (stereo partly shown) [Example 101], for which the IC50 on His-BIR3 (241-356, XIAP) was found to be 6.1 nM; in assay [1], 1 nM.
For `CN[C@@H](C)C(=O)N[C@@H](CCC(=O)O)C(=O)N1C[C@@H]2C[C@H]1C(=O)N[C@@H](Cc1ccc3ccccc3c1)C(=O)N[C@H](C(=O)O)Cc1ccc(cc1)C(=O)N[C@H]1C[C@@H](C(=O)N[C@@H](Cc3ccc4ccccc4c3)C(=O)N[C@H](C(=O)O)Cc3ccc(cc3)OC/C=C/CO2)N(C(=O)[C@@H](NC(=O)[C@H](C)NC)C(C)(C)C)C1` [Example 63] the same measures were 17.9 nM and 2.7 nM.
